{"source": "patent US10688092B2", "about": "“Compositions and methods of using nintedanib for improving glaucoma surgery success” (Cloudbreak Therapeutics, LLC, priority 2016, dated 2020)", "key": {"[1]": {"system": "patients with medically uncontrolled open-angle glaucoma scheduled for a primary trabeculectomy", "assay": "Clinical study of topical nintedanib 0.2% as adjunct therapy to trabeculectomy", "format": "in vivo, human", "source_text": "Topical nintedanib 0.2% as adjunct therapy to increase success of trabeculectomy in a clinical study. A randomized, double-masked, placebo-controlled, 12-month experimental trial to test the effects of topical nintedanib 0.2% on the success rate of trabeculectomy. The study design would be as described by Vandewalle et. al. (Vandewalle et. al. Br J Ophthalmol. 2014, January; 98(1):73-8).\nPatients with medically uncontrolled open-angle glaucoma scheduled for a primary trabeculectomy would be enrolled and randomized to receive one drop TID of either nintedanib or placebo solutions. The treatment would start immediately after surgery and would last for a month. Approximately 150 patients would be enrolled in the study.\nSurgeries would be performed under general or retrobulbar anaesthesia by experienced surgeons using a modified Moorfields technique. IOP would be measured by Goldmann applanation tonometry. Two measurements would be taken by masked observers and averaged to determine the mean IOP if two values were within 2 mm Hg. A third measurement would be taken if the difference between the first two determinations is >2 mm Hg.\nPatients would be examined on day 1; at weeks 1, 2, and 4; and at months 3, 6, and 12 after trabeculectomy. […] The number of postoperative IOP-lowering medications, intra- and postoperative complications, and surgical interventions would also be recorded. […]"}, "[2]": {"system": "rabbit model of glaucoma filtration surgery", "assay": "Rabbit glaucoma filtration surgery model", "format": "in vivo, New Zealand White rabbits", "source_text": "The rabbit glaucoma surgery model is used to illustrate use of the presently disclosed methods for improving the success of glaucoma filtration surgery. Specifically, an established rabbit model of glaucoma filtration surgery would be used to study the effects of nintedanib 0.2% solution on the wound-healing events after surgery. The surgical procedure is as described in Wong et al. (Wong et al. Invest Ophthalmol Vis Sci. 2003; 44(3):1097-1103). Briefly, a partial thickness 8-0 silk corneal traction suture is placed superiorly, and the eye pulled down. A fornix based conjunctival flap is raised, after which a blunt dissection of the subconjunctival space is performed of approximately 5 mm along the limbus and 8 mm posteriorly. A microvitreoretinal (MVR) blade is used to make a partial-thickness scleral incision 3 to 4 mm behind the limbus, and a scleral tunnel to the corneal stroma is fashioned. A 22-gauge, 25-mm intravenous cannula (Venflon 2; Beckton Dickinson, Oxford, UK) is passed through a scleral tunnel anteriorly until the cannula needle is visible in the clear cornea. Entry into the anterior chamber is made with a cannular needle, which is then withdrawn as the cannula is advanced to the mid-pupillary area. The cannula is trimmed and beveled at its scleral end so that it protrudes 1 mm from the insertion point, and a 10-0 nylon suture is placed to fix the tube to the scleral surface. The conjunctival incision is closed with two interrupted sutures and a central, mattress-type 10-0 nylon suture attached to a needle (B/V 100-4; Ethicon) to give a water-tight closure. One drop each of guttae chloramphenicol and Betnesol-N(Glaxo Wellcome, Uxbridge, UK) ointment is instilled at the end of surgery.\nTwenty female New Zealand White rabbits (2-2.4 kg, 12-14 weeks old; Charles River) would be acclimatized for 5 days before the experiments start. Glaucoma surgery would be performed on the left eye as described. After surgery, the rabbits would be arranged into two groups and one group would be treated with vehicle and another with nintedanib 0.2% solution. Treatments would begin immediately after surgery and the treatment would be TID for 2 weeks. The survival of the bleb formed by the surgery and the intraocular pressure (IOP) would be followed for 28 days. Histological analysis of the scar tissue would be performed at the end of the study."}}, "data": [{"compound": "COC(=O)c1ccc2c(c1)NC(=O)/C2=C(\\Nc1ccc(N(C)C(=O)CN2CCN(C)CC2)cc1)c1ccccc1", "note": "[nintedanib, Methyl (3Z)-3-{[(4-{methyl[(4-methylpiperazin-1-yl)acetyl]amino}phenyl)amino] (phenyl)methylidene}-2-oxo-2,3-dihydro-1H-indole-6-carboxylate]", "values": [{"measurement": "IOP compared to baseline", "setting": "[1]; 12-month visit, one drop TID for a month after surgery", "value": "effectively reduced"}, {"measurement": "absolute success rate of glaucoma surgery (FIG. 4)", "setting": "[1]; vs the placebo group, differences statistically significant at time points after 6 months", "value": "higher"}, {"measurement": "bleb survival at end of study", "setting": "[2]; day 28, no bleb would survive in the vehicle group", "value": "most of the bleb would survive"}, {"measurement": "histological analysis of scar tissue at the surgical site", "setting": "[2]; end of study, compared with vehicle group", "value": "less scar tissue"}, {"measurement": "Surgery success outcome", "setting": "[2]; nintedanib 0.2% solution TID for 2 weeks after surgery, compared with vehicle group", "value": "significantly prolonged"}, {"measurement": "bleb survival (survival curve of the bleb after surgery, FIG. 2)", "setting": "[2]; nintedanib 0.2% solution TID for 2 weeks, followed for 28 days, compared with vehicle group", "value": "substantially prolonged"}, {"measurement": "IOP during the follow up period after the surgery (FIG. 3)", "setting": "[2]; nintedanib 0.2% solution TID for 2 weeks, followed for 28 days, IOP increased gradually in vehicle group", "value": "below 20 mm"}]}]}
